{
  "source": "patent US20260365692A1",
  "about": "“COMPOSITIONS COMPRISING PROTEINS DISSOLVED IN FLUORINATED SOLVENTS, AND METHODS OF MAKING AND USING THE SAME” (priority 2022, published 2026)",
  "molecules": {"B1": {"name": "Trypsin: bovine trypsin (protein, UniProt P00760 24-246, looked up)", "Serine protease 1": "IVGGYTCGANTVPYQVSLNSGYHFCGGSLINSQWVVSAAHCYKSGIQVRLGEDNINVVEGNEQFISASKSIVHPSYNSNTLNNDIMLIKLKSAASLNSRVASISLPTSCASAGTQCLISGWGNTKSSGTSYPDVLKCLKAPILSDSSCKSAYPGQITSNMFCAGYLEGGKDSCQGDSGGPVVCSGKLQGIVSWGSGCAQKNKPGVYTKVCNYVSWIKQTIASN"}},
  "key": {"β-Galactosidase (β-Gal)": {"system": "β-Galactosidase (β-Gal)", "conditions": "into PFH, 1000:1 molar ratio with protein", "source_text": "FIGS. 8A-8G depict fluorochemical-mediated dispersion of test proteins hemoglobin (Hb, FIG. 8A), green fluorescent protein (GFP, FIG. 8B), bovine serum albumin (BSA, FIG. 8C), β-Galactosidase (β-Gal, FIG. 8D), rabbit serum immunoglobulin G (IgG, FIG. 8E), bovine apo-transferrin (TFN, FIG. 8F), and urease (URE, FIG. 8G) into perfluorohexane. […] The compound ‘0’ indicates a control sample absent of an additive. The crystal structure of each protein candidate tested is shown in the inset of each of FIGS. 8A-8G. Only the rabbit IgG Fc fragment is shown.\nTo investigate PFAS-protein binding avidity, an assay was developed to measure the concentration of protein dispersed into perfluorohexane (PFH) in the presence of each fluorochemical compound (1000:1 molar ratio with protein). Protein dispersion into PFH served as a quantitative measure of PFAS-protein avidity, where the amount of dispersed protein was normalized to its initial concentration to evaluate binding interactions."}, "[1]": {"system": "seven model proteins (Hb, GFP, BSA, β-Gal, IgG, TFN, URE)", "test": "Fluorochemical-mediated dispersion of test proteins into perfluorohexane", "format": "physicochemical", "conditions": "into PFH, 1000:1 molar ratio with protein", "source_text": "Only the rabbit IgG Fc fragment is shown.\nFor PFAS amphiphiles, the combination of polar head group and fluorophilic tail additionally leads to their preferential assembly at water-fluorous interfaces. Based on these unique properties, it was speculated that PFAS compounds may noncovalently associate with proteins to mediate their phase separation into fluorous media. To test this, a screening assay was developed to qualitatively investigate the binding affinity of a library of perfluorinated chemicals with seven model proteins, which include human hemoglobin (Hb), green fluorescent protein (GFP), bovine serum albumin (BSA), (β-Galactosidase (β-Gal), rabbit serum immunoglobulin (IgG), bovine apo-transferrin (TFN), and urease (URE). This group of model proteins captures an array of physicochemical properties ranging in molecular weight, solvent accessible surface area (SASA), isoelectric point (pI), and hydrodynamic radii. A corresponding perfluorinated small molecule test set was selected to contain a plurality of functional groups, linear perfluorocarbon chain lengths, and cyclic or aromatic geometries (FIGS. 1-7). Selection of these compounds was based on their potential to form noncovalent bonds (i.e., hydrogen or ionic) with the solvent exposed protein surfaces. […] These three linear PFAS chemicals are currently regulated by the US Environmental Protection Agency based on their reproductive, immune, and hepatic toxicity (References: 44-46). In sum, the structural and biochemical diversity represented in the protein and fluorochemical libraries was rationally selected to allow structure-function-performance relationships to be ascertained from binding studies."}, "[2]": {"system": "E. coli, P. aeruginosa, K. pneumoniae, Methicillin-resistant S. aureus (MRSA), C. albicans", "test": "Contamination of BSA formulations by bacterial and fungal pathogens", "source_text": "FIG. 53 depicts representative photographs of agar plates streaked with BSA formulations in PBS (top panel) or PFOc (lower panel) contaminated with the indicated pathogen. MRSA=methicillin resistant Staphylococcus aureus.\nEvaluating PFOc Protein Formulation Resilience Against Contaminants Aqueous protein formulations can be compromised by contaminating pathogens, or the biologic inactivated by exposure to environmental disinfectants and acids. In the context of bacterial and fungal contamination, it was hypothesized that removal of the water solvent required for microorganismal survival should make the PFOc protein formulations intrinsically sterile. A hypodermic needle was streaked across a lawn of the human bacterial pathogens E. coli, P. aeruginosa, K. pneumoniae or Methicillin-resistant S. aureus (MRSA), as well as the human fungal pathogen C. albicans prepared on agar. The contaminated needle was then submerged into BSA protein formulations prepared in either PBS or PFOc solvents. Contaminated liquid formulations were incubated at 37 °C overnight and replated onto agar plates to assess growth."}, "E. coli": {"system": "E. coli", "test": "Bacterial contamination of BSA samples with E. coli", "conditions": "37 °C overnight", "protocol": "FIG. 24A: Diagram of contamination experiment. FIG. 24B: Samples in PBS (top) and PFOc (bottom) after contamination with E. coli.\nTo model bacterial contamination of samples a hypodermic needle was streaked across a lawn of plated E. coli (FIG. 24A). The contaminated needle was then dipped into PBS or PFOc (containing PFNA) samples with dispersed BSA protein to contaminate, and samples incubated at 37 °C overnight to allow for bacterial growth. An aliquot of the solution was then streaked onto LB-agar plates and incubated at 37 C overnight to allow for bacterial colony formation."}, "[3]": {"test": "Temperature-dependent circular dichroism of proteins in PFOc or PBS (Example 4)", "format": "physicochemical", "protocol": "FIGS. 39A-39B depict temperature-dependent CD spectra of the indicated test protein solubilized in PFOc using the PD-7 dispersant, or PBS as a control.\nFIG. 40 depicts the change in minimum CD ellipticity over the 40 °C-85 °C temperature interval for the indicated protein dissolved in either PBS or PFOc.\nTo determine structural integrity of proteins in aqueous and fluorinated environments at elevated temperatures, circular dichroism (CD) was used to probe secondary structure. Proteins were either diluted in PBS (aqueous) or dispersed in PFOc at the same designated concentrations according to protocol described above. For aqueous samples, dissolved proteins were heated between 40 °C to 90 °C, and their corresponding CD spectra at each temperature was measured. For PFOc samples, each of the PFOc dispersed proteins were subjected to heat treatment at 40, 55, 70, and 85 °C for 15 minutes. After that, dispersed proteins were eluted into PBS before having their CD spectra taken. Data is shown by representative ellipticity at each temperature depicted by distinct colors."}, "HepG2 cells": {"system": "HepG2 cells", "test": "HepG2 MTT viability assay (Example 2)", "format": "cell-based, human", "conditions": "HepG2, 37 °C overnight", "protocol": "FIG. 28 depicts a viability assay for HepG2 cells treated with two first generation compounds and two second generation compounds.\nNext, viability assays were performed by seeding HepG2 (liver cancer cell line) onto 96 well plates and allowing the cells to adhere overnight. DMEM cell culture media containing various concentrations of each FTag compound were then added, and the plates were incubated at 37 °C overnight. The supernatant was then removed and MTT viability dyes were added to each well and allowed to convert for 2 hours. Dye absorbance for each condition was then compared to positive (20% DMSO) and negative (blank media) controls to calculate % viability (FIG. 28)."}, "[4]": {"test": "Protein activity after elevated temperature exposure (Example 4)", "format": "physicochemical", "conditions": "90 °C for 30 minutes", "protocol": "A group of enzyme proteins, β-Gal and Trypsin was chosen for this study. β-Gal and Trypsin were diluted in PBS or dispersed in PFOc at 1 μM and 10 μM, respectively. Next, a subset of samples was subjected to elevated temperature condition (90 °C) well beyond their native denaturation temperature for 30 minutes. After that, samples were allowed to cool down to room temperature before retrieval. For PFOc samples, proteins were extracted into PBS before performing the ensuing assays. To determine the enzymatic activity, an equal volume of protein samples was added to their substrates dissolved in PBS (4 mg/mL ONPG for β-Gal or 1 mg/mL BAEE for Trypsin). After incubation, ONPG and BAEE substrate conversions were measured by taking absorbance using a microplate reader at 420 nm or 400 nm, respectively. In case of intrinsic fluorescence, GFP was similarly prepared, and heat treated. After GFP samples were retrieved, fluorescent intensity was taken at λex=490 nm, λem=520 nm. The change in protein activity was presented by normalizing to spectrometric readings of each protein dissolved in PBS without being subjected to heat (room temperature). […] This supports the assertion that the fluorous coating and solvent environments, together, serve to constrain the conformational flexibility of the dispersed protein and, as a result, increase its melting temperature."}, "[5]": {"test": "Thermal stability of proteins in PFNA/PFOc (bioactivity after heating)", "format": "physicochemical", "conditions": "PFNA/PFOc mixture compared to aqueous solution, 30 min heating", "protocol": "FIGS. 16A-16C depict that the thermal stability of β-gal, GFP, and Trypsin is enhanced when the proteins are dissolved in a PFNA/PFOc mixture, compared to aqueous solutions of the proteins.\nPFNA enhanced thermal stability in PFOc Differential scanning calorimetry (DSC) measurements were performed on 5 test proteins dissolved in either PBS (Aq.) or Perfluorooctane (PFOc). PFNA dispersant was added only for the PFOc conditions. DSC was performed at 2 °C/min ramp from 40 °C-100 °C. Melting temperature (Tm) was determined based on positive inflection of heat capacity curve, indicating protein unfolding (FIG. 15). Change in melting temperature (ATm (°C)) represented the difference in Tm between aqueous (Aq.) and PFOc data. Tm for GFP in PFOc could not be achieved at the maximum temperature of 100 °C for the DSC experiments. Each protein was dissolved in PBS (Aq.) or PFNA/PFOc mixture. Dissolved proteins were heated to 75 °C (β-gal), 90 °C (GFP) or 80 °C (Trypsin); treatment temperatures were determined based on aqueous melting temperatures for each protein. Positive controls were maintained at room temperature (25 °C). […] Bioactivity was evaluated then via fluorescence measurements for GFP, or using colorimetric substrate conversion assays (ONPG for β-gal, BAEE for Trypsin). […]"}, "[6]": {"conditions": "dispersed in PFOc using PD-7, heated up to 85 °C"}},
  "data": [
    {"molecule": "O=C(O)C(F)(F)C(F)(F)C(F)(F)C(F)(F)C(F)(F)C(F)(F)C(F)(F)C(F)(F)C(F)(F)C(F)(F)C(F)(F)C(F)(F)C(F)(F)F", "note": "[Compound 11, perfluorotetradecanoic acid]", "values": [
      {"measurement": "dispersion efficiency of β-Gal (in words)", "setting": "β-Galactosidase (β-Gal)", "result": "sharp drop off in dispersion efficiency"}
    ]},
    {"molecule": "NCC(F)(F)C(F)(F)C(F)(F)C(F)(F)C(F)(F)C(F)(F)C(F)(F)C(F)(F)F", "note": "[Compound 20, 1H,1H-perfluorononylamine]", "values": [
      {"measurement": "capacity to disperse proteins into PFH / association with proteins (in words)", "setting": "[1]", "result": "capacity to disperse many of the protein candidates into PFH"}
    ]},
    {"molecule": "BSA: bovine serum albumin (BSA)", "values": [
      {"measurement": "contamination", "setting": "[2]; BSA in PBS", "result": "readily contaminated by all five pathogens"},
      {"measurement": "sterility after contamination", "setting": "[2]; BSA in PFOc", "result": "remained sterile"},
      {"measurement": "E. coli colony growth after contamination", "setting": "E. coli; BSA in PBS", "result": "Visible E. coli colony growth"},
      {"measurement": "sterility after contamination", "setting": "E. coli; BSA in PFOc (containing PFNA)", "result": "remained sterile"},
      {"measurement": "change in secondary structure", "setting": "[3]; [6]", "result": "minimal changes in secondary structure"}
    ]},
    {"molecule": "O=C(O)C(F)(F)C(F)(F)C(F)(F)C(F)(F)C(F)(F)C(F)(F)C(F)(F)C(F)(F)C(F)(F)C(F)(F)C(F)(F)F", "note": "[Compound 10, perfluorododecanoic acid]", "values": [
      {"measurement": "dispersion efficiency of β-Gal (in words)", "setting": "β-Galactosidase (β-Gal)", "result": "stepwise increase in dispersion efficiency"}
    ]},
    {"molecule": "O=C(O)C1(F)C(F)(F)C(F)(F)C(F)(F)C(F)(F)C1(F)F", "note": "[Compound 13, perfluorocyclohexanecarboxylic acid]", "values": [
      {"measurement": "capacity to disperse proteins into PFH / association with proteins (in words)", "setting": "[1]", "result": "capacity to disperse many of the protein candidates into PFH"}
    ]},
    {"molecule": "O=S(=O)(O)C(F)(F)C(F)(F)C(F)(F)C(F)(F)C(F)(F)C(F)(F)C(F)(F)C(F)(F)F", "note": "[Compound 17, perfluorooctanesulfonic acid]", "values": [
      {"measurement": "capacity to disperse proteins into PFH / association with proteins (in words)", "setting": "[1]", "result": "capacity to disperse many of the protein candidates into PFH"}
    ]},
    {"molecule": "O=C(O)C(F)(F)C(F)(F)C(F)(F)C(F)(F)C(F)(F)C(F)(F)C(F)(F)C(F)(F)C(F)(F)F", "note": "[Compound 8, perfluorodecanoic acid]", "values": [
      {"measurement": "capacity to disperse proteins into PFH / association with proteins (in words)", "setting": "[1]", "result": "significantly compromised its association with most proteins"}
    ]},
    {"molecule": "2,2-(1,1,1,2,2,3,3,4,4,5,5,6,6-tridecafluorooctane)-2-cyanoacetic acid [Compound 21]", "values": [
      {"measurement": "IC50", "setting": "HepG2 cells", "result": 610, "unit": "µM"}
    ]},
    {"molecule": "O=C(O)C(F)(F)C(F)(F)C(F)(F)C(F)(F)C(F)(F)C(F)(F)C(F)(F)F", "note": "[Compound 6, perfluorooctanoic acid]", "values": [
      {"measurement": "capacity to disperse proteins into PFH / association with proteins (in words)", "setting": "[1]", "result": "significantly compromised its association with most proteins"}
    ]},
    {"molecule": "B1", "values": [
      {"measurement": "change in activity after heating", "setting": "[4]; PFOc dispersed", "result": "no statistically significant change in activity"},
      {"measurement": "loss of bioactivity after heating", "setting": "[4]; saline", "result": "> 90", "unit": "%"},
      {"measurement": "thermal stability", "setting": "[5]", "result": "enhanced"},
      {"measurement": "change in secondary structure", "setting": "[3]; [6]", "result": "minimal changes in secondary structure"},
      {"measurement": "change in secondary structure", "setting": "[3]; saline (PBS) control, 40-85 °C", "result": "minimal change in structure"}
    ]}
  ]
}
